Where two headings read alike, the source gives them in different places.
How the values were obtained:
[1] = tested on: adenosine deaminase (ADA); assay: ADA-mediated deamination monitored by absorption and emission; format: biochemical
[2] = reported value, cited from earlier work
[3] = Abs: monitored by absorption, first order fit
[4] = Em: monitored by emission, first order fit

SMILES | kapp [1, 3] | t1/2 [1, 3] | kapp [1, 4] | t1/2 [1, 4] | t1/2 ([1]; calculated from absorption spectroscopy data) [s] | t1/2 ([1]; calculated from changes in emission spectra) [s] | pKa ([2]; first pKa) | pKa ([2]; second pKa) | half-life ([1]; adenosine deaminase (ADA) enzyme reaction) [s]
Nc1ncnc2c([C@@H]3O[C@H](CO)[C@@H](O)[C@H]3O)snc12 [^tzA] | 220 ± 10 × 10^−4 s^−1 | 0.32 ± 0.02 × 10^2 s | 220 ± 10 × 10^−4 s^−1 | 0.31 ± 0.02 × 10^2 s | 32 ± 2 | 31 ± 2 | – | – | –
Nc1nc2c(ncn2[C@@H]2O[C@H](CO)[C@@H](O)[C@H]2O)c(=O)[nH]1 [G, guanosine] | – | – | – | – | – | – | 3.2–3.3 | 9.2–9.6 | –
O=c1ccn([C@@H]2O[C@H](CO)[C@@H](O)[C@H]2O)c(=O)[nH]1 [uridine] | – | – | – | – | – | – | 9.20–9.25 | – | –
Nc1ncnc2c1ncn2[C@@H]1O[C@H](CO)[C@@H](O)[C@H]1O [A, adenosine] | 120 ± 10 × 10^−4 s^−1 | 0.57 ± 0.01 × 10^2 s | – | – | – | – | 3.6–4.2 | – | 57

Reference: PMC8891053 (Chemistry (Weinheim an der Bergstrasse, Germany), 2022)
